We go through 19 compounds from patent US8318746B2, “Nitrogen-containing five-membered heterocyclic compound” (Takeda Pharmaceutical Company Limited, priority 2007, dated 2012).

What is called melting point is the temperature, or range, at which the solid turns liquid.

Molecules are shown by their SMILES.

Compound `N#CCc1ccc(-c2ccc(C(CC3CCOCC3)c3ccc(S(=O)(=O)C4CC4)cc3)[nH]2)nc1` (stereo not shown) [Example 128, [6-(5-{1-[4-(cyclopropylsulfonyl)phenyl]-2-(tetrahydro-2H-pyran-4-yl)ethyl}-1H-pyrrol-2-yl)pyridin-3-yl]acetonitrile] had a melting point of 139 to 141 °C.
`O=C(O)Cc1ccc(-c2ccc(C(CC3CCOCC3)c3ccc(S(=O)(=O)C4CC4)cc3)[nH]2)nc1` (stereo not shown) [Example 129, [6-(5-{1-[4-(cyclopropylsulfonyl)phenyl]-2-(tetrahydro-2H-pyran-4-yl)ethyl}-1H-pyrrol-2-yl)pyridin-3-yl]acetic acid]: the melting point was 124 to 127 °C.
Take `O=C(Cc1ccc(-c2ccc(C(CC3CCOCC3)c3ccc(S(=O)(=O)C4CC4)cc3)[nH]2)nc1)N1CCOCC1` (stereo not shown) [Example 130, 4-{[6-(5-{1-[4-(cyclopropylsulfonyl)phenyl]-2-(tetrahydro-2H-pyran-4-yl)ethyl}-1H-pyrrol-2-yl)pyridin-3-yl]acetyl}morpholine]: the melting point was 202 to 203 °C.
In turn, `O=C(Cc1ccc(-c2ccc(C(CC3CCOCC3)c3ccc(S(=O)(=O)C4CC4)cc3)[nH]2)nc1)N1CCC1` (stereo not shown) [Example 131, 5-(2-(azetidin-1-yl)-2-oxoethyl)-2-(5-{1-[4-(cyclopropylsulfonyl)phenyl]-2-(tetrahydro-2H-pyran-4-yl)ethyl}-1H-pyrrol-2-yl)pyridine] displayed a melting point of 94 to 98 °C.
The compound `NC(=O)Cc1ccc(-c2ccc(C(CC3CCOCC3)c3ccc(S(=O)(=O)C4CC4)cc3)[nH]2)nc1` (stereo not shown) [Example 132, 2-[6-(5-{1-[4-(cyclopropylsulfonyl)phenyl]-2-(tetrahydro-2H-pyran-4-yl)ethyl}-1H-pyrrol-2-yl)pyridin-3-yl]acetamide] had a melting point of 151 to 153 °C.
In turn, `CC(C)(O)C(O)c1ccc(-c2ccc(C(CC3CCOCC3)c3ccc(S(C)(=O)=O)c(Cl)c3)[nH]2)nc1` (stereo not shown) [Example 133, 1-[6-(5-{1-[3-chloro-4-(methylsulfonyl)phenyl]-2-(tetrahydro-2H-pyran-4-yl)ethyl}-1H-pyrrol-2-yl)pyridin-3-yl]-2-methylpropane-1,2-diol] showed a melting point of 138 to 140 °C.
In turn, `CS(=O)(=O)c1ccc(C(CC2CCOCC2)c2ccc(-c3ccccn3)[nH]2)cn1` (stereo not shown) [Example 137, 2-(methylsulfonyl)-5-[1-(5-(pyridin-2-yl)-1H-pyrrol-2-yl)-2-(tetrahydro-2H-pyran-4-yl)ethyl]pyridine] returned a melting point of 89 to 90 °C.
`O=C1CN(Cc2cnc(-c3ccc(C(CC4CCOCC4)c4ccc(S(=O)(=O)C5CC5)cc4)[nH]3)s2)C(=O)N1` (stereo not shown) [Example 147, 1-{[2-(5-{1-[4-(cyclopropylsulfonyl)phenyl]-2-(tetrahydro-2H-pyran-4-yl)ethyl}-1H-pyrrol-2-yl)-1,3-thiazol-5-yl]methyl}imidazolidine-2,4-dione] had a melting point of 184 to 185 °C.
Take `O=C(O)Cc1cnc(-c2ccc(C(CC3CCOCC3)c3ccc(S(=O)(=O)C4CC4)cc3)[nH]2)s1` (stereo not shown) [Example 149, [2-(5-{1-[4-(cyclopropylsulfonyl)phenyl]-2-(tetrahydro-2H-pyran-4-yl)ethyl}-1H-pyrrol-2-yl)-1,3-thiazol-5-yl]acetic acid]: the melting point is 246 to 247 °C (dec.).
In turn, `O=Cc1cnc(-c2ccc(C(CC3CCOCC3)c3ccc(S(=O)(=O)C4CC4)cc3)[nH]2)s1` (stereo not shown) [Example 158, 2-(5-{1-[4-(cyclopropylsulfonyl)phenyl]-2-(tetrahydro-2H-pyran-4-yl)ethyl}-1H-pyrrol-2-yl)-1,3-thiazole-5-carbaldehyde] came in with a melting point of 175 to 176 °C.
`CC(O)c1cnc(-c2ccc(C(CC3CCOCC3)c3ccc(S(=O)(=O)C4CC4)cc3)[nH]2)s1` (stereo not shown) [Example 166, Optically Active Form of 1-[2-(5-{1-[4-(cyclopropylsulfonyl)phenyl]-2-(tetrahydro-2H-pyran-4-yl)ethyl}-1H-pyrrol-2-yl)-1,3-thiazol-5-yl]ethanol] came in with a melting point of 105 to 106 °C.
Regarding `CC(O)c1cnc(-c2ccc(C(CC3CCOCC3)c3ccc(S(=O)(=O)C4CC4)cc3)[nH]2)s1` (stereo not shown) [Example 167, Optically Active form of 1-[2-(5-{1-[4-(cyclopropylsulfonyl)phenyl]-2-(tetrahydro-2H-pyran-4-yl)ethyl}-1H-pyrrol-2-yl)-1,3-thiazol-5-yl]ethanol], the melting point was in the range of 112 to 114 °C.
On to `CC(O)c1cnc(-c2ccc(C(CC3CCOCC3)c3ccc(S(=O)(=O)C4CC4)cc3)[nH]2)s1` (stereo not shown) [Example 168, Optically Active Form of 1-[2-(5-{1-[4-(cyclopropylsulfonyl)phenyl]-2-(tetrahydro-2H-pyran-4-yl)ethyl}-1H-pyrrol-2-yl)-1,3-thiazol-5-yl]ethanol], for which the melting point was in the range of 115 to 116 °C.
Take `COC(=O)Nc1cc(-c2nccs2)[nH]c1C(CC1CCOCC1)c1ccc(S(=O)(=O)C2CC2)cc1` (stereo not shown) [Example 181, Methyl [2-{1-[4-(cyclopropylsulfonyl)phenyl]-2-(tetrahydro-2H-pyran-4-yl)ethyl}-5-(1,3-thiazol-2-yl)-1H-pyrrol-3-yl]carbamate]: the melting point lay within 120 to 122 °C.
`CS(=O)(=O)c1ccc(C(CC2CCOCC2)c2cnc(-c3ccccn3)[nH]2)cc1Cl` (stereo not shown) [Example 183, 2-(5-{1-[3-chloro-4-(methylsulfonyl)phenyl]-2-(tetrahydro-2H-pyran-4-yl)ethyl}-1H-imidazol-2-yl)pyridine]: the melting point was in the range of 106 to 109 °C.
Compound `O=S(=O)(c1ccc(C(CC2CCOCC2)c2ccc(-c3nnc(CO)s3)[nH]2)cc1)C1CC1` (stereo not shown) [Example 206, [5-(5-{1-[4-(cyclopropylsulfonyl)phenyl]-2-(tetrahydro-2H-pyran-4-yl)ethyl}-1H-pyrrol-2-yl)-1,3,4-thiadiazol-2-yl]methanol] showed a melting point of 208.5 to 208.6 °C.
Turning to `CC(C)(O)C(O)c1ccc(-c2ccc(/C(=C/C3CCOCC3)c3ccc(S(=O)(=O)C4CC4)cc3)[nH]2)nc1` (stereo not shown) [Example 220, 1-(6-{5-[(E)-1-[4-(cyclopropylsulfonyl)phenyl]-2-(tetrahydro-2H-pyran-4-yl)ethenyl]-1H-pyrrol-2-yl}pyridin-3-yl)-2-methylpropane-1,2-diol], the melting point fell in the range of 196 to 197 °C.
The figure for `CS(=O)(=O)c1ccc(C(CC2CCOCC2)c2ccc(-c3nnc(CO)s3)[nH]2)cc1` (stereo not shown) [Example 221, [5-(5-{1-[4-(methylsulfonyl)phenyl]-2-(tetrahydro-2H-pyran-4-yl)ethyl}-1H-pyrrol-2-yl)-1,3,4-thiadiazol-2-yl]methanol] is 199 to 201 °C; for `CC(CC1CCOCC1)(c1ccc(S(C)(=O)=O)cn1)c1ccc(-c2ccccn2)[nH]1` (stereo not shown) [Example 245, 2-[1-methyl-1-(5-(pyridin-2-yl)-1H-pyrrol-2-yl)-2-(tetrahydro-2H-pyran-4-yl)ethyl]-5-(methylsulfonyl)pyridine] it is 135 to 136 °C.
